Experimental data as given in patent US4415574A, “Soluble N2 substituted derivatives of 2,4-diamino 5-benzyl pyrimidine, process for their preparation and medicaments containing them” (S. A. Panmedica, priority 1981, dated 1983).

Experiments:
Format in all cases: cell-based
COLI [1] = assay: Inhibiting minimum concentration (I.M.C.), activity relative to trimethoprime, MULLER HINTON COLI MEDIUM 4; conditions: for % activity with respect to the base: ratio of I.M.C. to trimethoprime; for % activity to the base corrected by molecular weight: ratio to trimethoprime
Protocol: (§1) The antibacterial activity of the derivatives according to the invention were tested in vitro by determining the inhibiting minimum concentrations (I.M.C.) on different germs.

BACIL PUMILUS = assay: Inhibiting minimum concentration (I.M.C.), activity relative to trimethoprime, MULLER HINTON BACIL PUMILUS MEDIUM; conditions: for % activity with respect to the base: ratio of I.M.C. to trimethoprime; for % activity with respect to the base corrected by molecular weight: ratio to trimethoprime
Protocol: as §1

COLI [2] = assay: Inhibiting minimum concentration (I.M.C.), activity relative to trimethoprime, OXOIDE COLI MEDIUM 4; conditions: for % activity with respect to the base: ratio of I.M.C. to trimethoprime; for % activity with respect to the base corrected by molecular weight: ratio to trimethoprime
Protocol: as §1

Row | Structure (SMILES) | % activity with respect to the base (COLI [1]) | % activity to the base corrected by molecular weight (COLI [1]) | % activity with respect to the base (BACIL PUMILUS) | % activity with respect to the base corrected by molecular weight (BACIL PUMILUS) | % activity with respect to the base (COLI [2]) | % activity with respect to the base corrected by molecular weight (COLI [2])
1 | COc1cc(Cc2cnc(NC(c3cccc(Cl)c3)S(=O)(=O)O)nc2N)cc(OC)c1OC (stereo not shown) [Example 10, N2 (3-Chloro Phenyl) Methane Sulfonic Acid of 2,4-Diamino 5-(3,4,5-Trimethoxy Benzyl) Pyrimidine] | 11.6% | 20% | 10.4% | 18% | 14.1% | 25%
2 | CCCC(Nc1ncc(Cc2cc(OC)c(OC)c(OC)c2)c(N)n1)S(=O)(=O)O (stereo not shown) [Example 3, N2 Butane Sulfonic Acid of 2,4-Diamino 5-(3,4,5-Trimethoxy Benzyl) Pyrimidine] | 4.55% | 10.8% | 2.9% | 6.8% | 18.35% | 28%
3 | COc1cccc(C(Nc2ncc(Cc3cc(OC)c(OC)c(OC)c3)c(N)n2)S(=O)(=O)O)c1 (stereo not shown) [Example 16, N2 (3-Methoxy Phenyl) Methane Sulfonic Acid 2,4-Diamino 5-(3,4,5-Trimethoxy Benzyl) Pyrimidine] | 16.8% | 29% | 10.7% | 19% | 13.2% | 23%
4 | COc1cc(C(Nc2ncc(Cc3cc(OC)c(OC)c(OC)c3)c(N)n2)S(=O)(=O)O)ccc1O (stereo not shown) [Example 21, N2 (4-Hydroxy 3-Methoxy) Phenyl Methane Sulfonic Acid of 2,4-Diamino 5-(3,4,5-Trimethoxy Benzyl) Pyrimidine] | 43.3% | 79% | 34.6% | 63% | 49.8% | 90%
5 | COc1cc(Cc2cnc(NC(C(C)(C)C)S(=O)(=O)O)nc2N)cc(OC)c1OC (stereo not shown) [Example 5, N2 (2,2-Dimethyl) Propane Sulfonic Acid of 2,4-Diamino 5-(3,4,5-Trimethoxy Benzyl) Pyrimidine] | 23.3% | 37% | 19.4% | 30% | 18.4% | 29%
6 | COc1cc(Cc2cnc(NC(c3cccs3)S(=O)(=O)O)nc2N)cc(OC)c1OC (stereo not shown) [Example 20, N2 (2-Thienyl) Methane Sulfonic Acid of 2,4-Diamino 5-(3,4,5-Trimethoxy Benzyl) Pyrimidine] | 73.5% | 123% | 83.4% | 140% | 62.6% | 105%
7 | COc1cc(Cc2cnc(NC(c3ccccc3O)S(=O)(=O)O)nc2N)cc(OC)c1OC (stereo not shown) [Example 25e, N2 (2-HYDROXY) PHENYL METHANE SULFONIC ACID OF 5-(3,4,5-TRIMETHOXY BENZYL) 2,4-DIAMINO PYRIMIDINE] | 45.8% | 93% | 75.8% | 154% | 36.6% | 74%
8 | COc1cc(Cc2cnc(NC(C(C)C)S(=O)(=O)O)nc2N)cc(OC)c1OC (stereo not shown) [Example 4, N2 (2-Methyl) Propane Sulfonic Acid of 2,4-Diamino 5-(3,4,5-Trimethoxy Benzyl) Pyrimidine] | 14.1% | 22% | 11.8% | 18% | 12.9% | 20%
9 | CCC(C)C(C)C(Nc1ncc(Cc2cc(OC)c(OC)c(OC)c2)c(N)n1)S(=O)(=O)O (stereo not shown) [Example 6, N2 (2,3-Dimethyl) Pentane Sulfonic Acid of 2,4-Diamino 5-(3,4,5-Trimethoxy Benzyl) Pyrimidine] | 15.75% | 27% | 16.6% | 28% | 18.8% | 32%
10 | COc1cc(Cc2cnc(NC(c3cc(OC)c(OC)c(OC)c3)S(=O)(=O)O)nc2N)cc(OC)c1OC (stereo not shown) [Example 17, N2 (3,4,5-Trimethoxy Phenyl) Methane Sulfonic Acid 2,4-Diamino 5-(3,4,5-Trimethoxy Benzyl) Pyrimidine] | 24.3% | 48% | 42.7% | 84% | 34.8% | 68%
11 | COc1cc(Cc2cnc(NC(c3ccccc3[N+](=O)[O-])S(=O)(=O)O)nc2N)cc(OC)c1OC (stereo not shown) [Example 14, N2 (2-Nitro Phenyl) Methane Sulfonic Acid of 2,4-Diamino 5-(3,4,5-Trimethoxy Benzyl) Pyrimidine] | 13.9% | 25% | 11.0% | 20% | 10.6% | 19%
12 | COc1cc(Cc2cnc(NC(c3ccc([N+](=O)[O-])cc3)S(=O)(=O)O)nc2N)cc(OC)c1OC (stereo not shown) [Example 12, N2 (4-Nitro Phenyl) Methane Sulfonic Acid of 2,4-Diamino 5-(3,4,5-Trimethoxy Benzyl) Pyrimidine] | 18.1% | 32% | 11.9% | 22% | 11.7% | 21%
13 | CCC(CC)C(Nc1ncc(Cc2cc(OC)c(OC)c(OC)c2)c(N)n1)S(=O)(=O)O (stereo not shown) [Example 7, N2 (2-Ethyl) Butane Sulfonic Acid of 2,4-Diamino 5-(3,4,5-Trimethoxy Benzyl) Pyrimidine] | 15.5% | 25% | 14% | 23% | 14% | 23%
14 | CCOc1cc(C(Nc2ncc(Cc3cc(OC)c(OC)c(OC)c3)c(N)n2)S(=O)(=O)O)ccc1O (stereo not shown) [Example 24e, N2 (3-Ethoxy 4-Hydroxy) Phenyl Methane Sulfonic Acid of 5-(3,4,5-Trimethoxy Benzyl) 2,4-Diamino Pyrimidine] | 40.0% | 86% | 40.0% | 86% | 21.3% | 46%
15 | COc1cc(Cc2cnc(NC(c3ccccc3)S(=O)(=O)O)nc2N)cc(OC)c1OC (stereo not shown) [Example 8, N2 Phenyl Methane Sulfonic Acid of 2,4-Diamino 5-(3,4,5-Trimethoxy Benzyl) Pyrimidine] | 10.2% | 16.4% | 18.4% | 26% | 13.3% | 21%
16 | CCOc1cc(C(Nc2ncc(Cc3cc(OC)c(OC)c(OC)c3)c(N)n2)S(=O)(=O)O)ccc1O (stereo not shown) [Example 24d, N2 (3-Ethoxy 4-Hydroxy) Phenyl Methane Sulfonic Acid of 5-(3,4,5-Trimethoxy Benzyl) 2,4-Diamino Pyrimidine] | 23.2% | 46% | 37.0% | 74% | 13.1% | 26%
17 | COc1cc(Cc2cnc(NCS(=O)(=O)O)nc2N)cc(OC)c1OC [Example 1, N2 Methane Sulfonic Acid of 2,4-Diamino 5-(3,4,5-TrimethoxyBenzyl) Pyrimidine] | 0.3% | 0.4% | 0.1% |  | 17.1% | 24%
18 | COc1cc(Cc2cnc(NC(c3ccccc3O)S(=O)(=O)O)nc2N)cc(OC)c1OC (stereo not shown) [Example 25c, N2 (2-HYDROXY) PHENYL METHANE SULFONIC ACID OF 5-(3,4,5-TRIMETHOXY BENZYL) 2,4-DIAMINO PYRIMIDINE] | 57% | 116% |  |  |  | 
19 | COc1cc(Cc2cnc(NC(c3ccccc3Cl)S(=O)(=O)O)nc2N)cc(OC)c1OC (stereo not shown) [Example 9, N2 (2-Chloro Phenyl) Methane Sulfonic Acid of 2,4-Diamino 5-(3,4,5-Trimethoxy Benzyl) Pyrimidine] | 13.3% | 23% | 14.1% | 25% | 14.7% | 26%
